Patent US10112918B2, “15-oxospiramilactone derivatives, preparation method and uses thereof” (Kunming Institute of Botany, The Chinese Academy of Sciences, priority 2013, dated 2018)
Like-named read-outs stand apart in the source and are kept apart here.

Columns and labels:
Assay type in all cases: cell-based
[1] = tested on: SMMC-7721 (human hepatoma cells); assay: MTT inhibition of tumor cell growth, SMMC-7721; conditions: Homo sapiens
Method in brief: (§1)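 Cells were seeded at 5000-10000 per well in DMEM or RPMI1640 with 10% FBS, adherent lines pre-cultured 12 h. Compounds were tested at 40 μM, with 5-concentration re-screening for those near 50% inhibition, in triplicate for 48 h at 37° C; MTT/SDS absorbance at 595 nm gave IC50 by Reed-Muench.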

[2] = tested on: Wnt signaling pathway (Top-Flash reporter gene); assay: Top-Flash Wnt reporter gene assay in HEK293T cells with Wnt3a conditioned medium; conditions: Homo sapiens, HEK-293T, 6 h
Method in brief: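 IC50 is the concentration giving relative residual reporter activity of 0.5 by 4-parameter logistic fit, after subtracting conditioned-medium DMSO background and normalizing to Wnt-induced signal. Luciferase read from HEK293T carrying TOP-flash and GFP internal standard, exposed 6 h to L-cell Wnt3a conditioned medium plus compound.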

[3] = tested on: SW-480 (human colon cancer cells); assay: MTT inhibition of tumor cell growth, SW-480; conditions: Homo sapiens
Method in brief: as §1

[4] = tested on: HL-60 (human promyelocytic leukemia cells); assay: MTT inhibition of tumor cell growth, HL-60; conditions: Homo sapiens
Method in brief: as §1

[5] = tested on: MCF-7 (human breast cancer cells); assay: MTT inhibition of tumor cell growth, MCF-7; conditions: Homo sapiens
Method in brief: as §1

[6] = tested on: A-549 (Human lung adenocarcinoma cells); assay: MTT inhibition of tumor cell growth, A-549; conditions: Homo sapiens
Method in brief: as §1

[7] = SMMC-7721, 48 h, Table 2, derivatives having potential Michael reaction acceptor
[8] = Table 9, HEK293T, Wnt3a conditioned medium, read-out: IC50(μM), inhibitory activity on the Wnt signaling pathway
[9] = SW480, 48 h, Table 2, derivatives having potential Michael reaction acceptor, read-out: IC50 SW-480
[10] = HL-60, 48 h, Table 2, derivatives having potential Michael reaction acceptor
[11] = MCF7, 48 h, Table 2, derivatives having potential Michael reaction acceptor
[12] = A549, 48 h, Table 2, derivatives having potential Michael reaction acceptor
[13] = Table 8, HEK293T, Wnt3a conditioned medium, read-out: IC50 (μM), inhibitory activity on the Wnt signaling pathway
[14] = SMMC-7721, 48 h, Table 1, 7-hydroxy derivatives of S-3
[15] = Table 7 (second), derivatives modified on 7-hydroxyl of S-3, HEK293T, Wnt3a conditioned medium, read-out: IC50 (μM), inhibitory activity on the Wnt signaling pathway
[16] = SW480, 48 h, Table 1, 7-hydroxy derivatives of S-3, read-out: IC50 SW-480
[17] = HL-60, 48 h, Table 1, 7-hydroxy derivatives of S-3
[18] = MCF7, 48 h, Table 1, 7-hydroxy derivatives of S-3
[19] = A549, 48 h, Table 1, 7-hydroxy derivatives of S-3

C=C1C(=O)[C@]23CC[C@H]1CC2[C@@]12CCC[C@@]4(C)C(=O)N[C@@H]1O[C@@H]3CC24 (some centres unmarked) [Compound 84]
IC50 ([1]; SMMC-7721, Table 7 (first), alkaloid derivatives, 48 h): 15.7 µM | IC50 ([2]; read-out: IC50 (μM), inhibitory activity on the Wnt signaling pathway): 60.6 ± 3.09 µM | IC50 ([3]; SW480, Table 7 (first), alkaloid derivatives, 48 h, read-out: IC50 SW-480): 14.2 µM | IC50 ([4]; HL-60, Table 7 (first), alkaloid derivatives, 48 h): 18.6 µM | IC50 ([5]; MCF7, Table 7 (first), alkaloid derivatives, 48 h): 15.7 µM | IC50 ([6]; A549, Table 7 (first), alkaloid derivatives, 48 h): 19 µM

C=C1C(=O)[C@]23CC[C@H]1CC2[C@@]12CCC[C@@](C)(COC1=O)C2C(CN(C)C)C3=O (some centres unmarked) [Compound 10]
IC50 [1, 7]: 0.71 µM | IC50 [2, 8]: 9.54 ± 1.34 µM | IC50 [3, 9]: 1.03 µM | IC50 [4, 10]: 3.41 µM | IC50 [5, 11]: 1.18 µM | IC50 [6, 12]: 0.83 µM

C=C1C(=O)[C@@]23CC[C@@H](CC2[C@@]24CCC[C@@](C)(COC2=O)C14)C(=C)[C@@H]3O (some centres unmarked) [Compound 16]
IC50 [1, 7]: 12 µM | IC50 [2, 8]: 8.27 ± 1.24 µM | IC50 [3, 9]: 11.4 µM | IC50 [4, 10]: 5.56 µM | IC50 [5, 11]: 3.09 µM | IC50 [6, 12]: 4.77 µM

C=C1C(=O)C23CC[C@H]1CC2[C@]1(COC(C)=O)CCC[C@@](C)(COC(C)=O)C1C[C@H]3O (some centres unmarked) [Compound 45]
IC50 ([1]; SMMC-7721, 48 h, Table 4, derivatives obtained by reduction of the lactonic ring): 7.83 µM | IC50 [2, 13]: 9.98 ± 1 µM | IC50 ([3]; SW480, 48 h, Table 4, derivatives obtained by reduction of the lactonic ring, read-out: IC50 SW-480): 9.89 µM | IC50 ([3]; SW480, 48 h, Table 6, 7-hydroxyl derivatives and controls, read-out: IC50 SW-480, 7-hydroxyl derivatives): 2.81 µM | IC50 ([4]; HL-60, 48 h, Table 4, derivatives obtained by reduction of the lactonic ring): 4.74 µM | IC50 ([5]; MCF7, 48 h, Table 4, derivatives obtained by reduction of the lactonic ring): 4.82 µM | IC50 ([6]; A549, 48 h, Table 4, derivatives obtained by reduction of the lactonic ring): 3.49 µM

C=C1C(=O)C23CC[C@H]1CC2[C@]1(COC(C)=O)CCC[C@@](C)(COC(C)=O)C1[C@H](CN1CCOCC1)C3=O (some centres unmarked) [Compound 50]
IC50 [1, 7]: 10.8 µM | IC50 [2, 8]: 56 ± 0.92 µM | IC50 [3, 9]: 6.57 µM | IC50 [4, 10]: 6.3 µM | IC50 [5, 11]: 4.23 µM | IC50 [6, 12]: 4.69 µM

C=C1C(=O)[C@]23CC[C@H]1CC2[C@@]12CCC[C@@](C)(COC1=O)C2C[C@H]3OC=O (some centres unmarked) [Compound 1a]
IC50 [1, 14]: 1.67 µM | IC50 [2, 15]: 18.3 ± 0.66 µM | IC50 [3, 16]: 1.96 µM | IC50 [4, 17]: 2.39 µM | IC50 [5, 18]: 2.74 µM | IC50 [6, 19]: 2.18 µM

C=C1C(=O)C23CC[C@H]1CC2[C@@]12CCC[C@@](C)(COC1=O)C2C[C@H]3OC(=O)CN=[N+]=[N-] (some centres unmarked) [Compound 1e]
IC50 [1, 14]: 4.1 µM | IC50 [2, 15]: 22.14 ± 0.1 µM | IC50 [3, 16]: 2.37 µM | IC50 [4, 17]: 4.44 µM | IC50 [5, 18]: 2.74 µM | IC50 [6, 19]: 2.96 µM

C=C1C(=O)C23CC[C@@H](CC2[C@@]24CCC[C@@](C)(COS(=O)OC2)C14)C(=C)C3=O (some centres unmarked) [Compound 43]
IC50 ([1]; SMMC-7721, 48 h, Table 5, derivatives having double Michael reaction acceptor): 0.16 µM | IC50 [2, 8]: 12.8 ± 0.13 µM | IC50 ([3]; SW480, 48 h, Table 5, derivatives having double Michael reaction acceptor, read-out: IC50 SW-480): 0.59 µM | IC50 ([3]; SW480, 48 h, Table 6, double Michael reaction acceptor derivatives, read-out: IC50 SW-480, derivatives having double Michael reaction acceptor): 0.34 µM | IC50 ([4]; HL-60, 48 h, Table 5, derivatives having double Michael reaction acceptor): 0.68 µM | IC50 ([5]; MCF7, 48 h, Table 5, derivatives having double Michael reaction acceptor): 0.78 µM | IC50 ([6]; A549, 48 h, Table 5, derivatives having double Michael reaction acceptor): 0.58 µM

C[C@]12CCC[C@@]3(C(=O)OC1)C1C[C@@H]4CCC1(C(=O)[C@H]4CN1CCOCC1)[C@H](O)CC23 (some centres unmarked) [Compound 75]
IC50 [1, 7]: 5.97 µM | IC50 [2, 8]: > 60 µM | IC50 [3, 9]: 8.01 µM | IC50 [4, 10]: 3.78 µM | IC50 [5, 11]: 4.12 µM | IC50 [6, 12]: 3.64 µM

C=C1C(=O)C23CC[C@H]1CC2[C@]1(C(=O)O)CCC[C@@](C)(CO)C1C[C@H]3O (some centres unmarked) [Compound 38]
IC50 ([1]; SMMC-7721, 48 h, Table 3, single Michael reaction acceptor, modified lactonic ring): > 40 µM | IC50 [2, 13]: > 60 µM | IC50 ([3]; SW480, 48 h, Table 3, single Michael reaction acceptor, modified lactonic ring, read-out: IC50 SW-480): > 40 µM | IC50 ([4]; HL-60, 48 h, Table 3, single Michael reaction acceptor, modified lactonic ring): > 40 µM | IC50 ([5]; MCF7, 48 h, Table 3, single Michael reaction acceptor, modified lactonic ring): > 40 µM | IC50 ([6]; A549, 48 h, Table 3, single Michael reaction acceptor, modified lactonic ring): > 40 µM
